Laboratory results published in the supplement of paper PMC10307832.

Legend:
Assay in all cases: relative viability (nuclei count vs DMSO), 5 days (fraction); higher = more cells survive
Sorafenib + Linsitinib = compound: CNC(=O)c1cc(Oc2ccc(NC(=O)Nc3ccc(Cl)c(C(F)(F)F)c3)cc2)ccn1 [Sorafenib] + C[C@]1(O)C[C@@H](c2nc(-c3ccc4ccc(-c5ccccc5)nc4c3)c3c(N)nccn32)C1 [Linsitinib] (partner 1 µM)
In short: (§1)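 Lung cancer cell lines were pin-tool dosed in 1536-well plates on the day after seeding, with either a lone drug or a fixed anchor-drug dose plus five library-drug doses (not always all listed) in √10 steps. Nuclei were counted on 4× images after 5 days. Relative viability is the ratio of treated-well to vehicle-well nuclei counts, with each value a median of duplicate plates.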

Sorafenib + Pemetrexed = compound: CNC(=O)c1cc(Oc2ccc(NC(=O)Nc3ccc(Cl)c(C(F)(F)F)c3)cc2)ccn1 [Sorafenib] + Nc1nc2[nH]cc(CCc3ccc(C(=O)N[C@@H](CCC(=O)O)C(=O)O)cc3)c2c(=O)[nH]1 [Pemetrexed] (partner 0.2 µM)
In short: as §1

Sorafenib + Crizotinib = compound: CNC(=O)c1cc(Oc2ccc(NC(=O)Nc3ccc(Cl)c(C(F)(F)F)c3)cc2)ccn1 [Sorafenib] + C[C@@H](Oc1cc(-c2cnn(C3CCNCC3)c2)cnc1N)c1c(Cl)ccc(F)c1Cl [Crizotinib] (partner 1 µM)
In short: as §1

Sorafenib + Palbociclib = compound: CNC(=O)c1cc(Oc2ccc(NC(=O)Nc3ccc(Cl)c(C(F)(F)F)c3)cc2)ccn1 [Sorafenib] + CC(=O)c1c(C)c2cnc(Nc3ccc(N4CCNCC4)cn3)nc2n(C2CCCC2)c1=O [Palbociclib] (partner 0.5 µM)
In short: as §1

Sorafenib + AZD7762 = compound: CNC(=O)c1cc(Oc2ccc(NC(=O)Nc3ccc(Cl)c(C(F)(F)F)c3)cc2)ccn1 [Sorafenib] + NC(=O)Nc1cc(-c2cccc(F)c2)sc1C(=O)N[C@H]1CCCNC1 [AZD7762] (partner 0.2 µM)
In short: as §1

Cell Line	relative viability (Sorafenib + Linsitinib; first compound 0.08 µM)	relative viability (Sorafenib + Linsitinib; first compound 0.253 µM)	relative viability (Sorafenib + Linsitinib; first compound 2.53 µM)	relative viability (Sorafenib + Linsitinib; first compound 8 µM)	relative viability (Sorafenib + Pemetrexed; first compound 0.08 µM)	relative viability (Sorafenib + Pemetrexed; first compound 0.253 µM)	relative viability (Sorafenib + Pemetrexed; first compound 8 µM)	relative viability (Sorafenib + Crizotinib; first compound 0.08 µM)	relative viability (Sorafenib + Crizotinib; first compound 0.253 µM)	relative viability (Sorafenib + Crizotinib; first compound 2.53 µM)	relative viability (Sorafenib + Crizotinib; first compound 8 µM)	relative viability (Sorafenib + Palbociclib; first compound 0.08 µM)	relative viability (Sorafenib + Palbociclib; first compound 0.253 µM)	relative viability (Sorafenib + Palbociclib; first compound 2.53 µM)	relative viability (Sorafenib + Palbociclib; first compound 8 µM)	relative viability (Sorafenib + AZD7762; first compound 0.08 µM)	relative viability (Sorafenib + AZD7762; first compound 0.253 µM)	relative viability (Sorafenib + AZD7762; first compound 2.53 µM)	relative viability (Sorafenib + Pemetrexed; first compound 2.53 µM)	relative viability (Sorafenib + AZD7762; first compound 8 µM)
NCI-H1734	0.967	0.836	0.841	0.742	0.431	0.415	0.374	0.746	0.625	0.66	0.426	0.376	0.329	0.37	0.275	0.572	0.497	0.505		
NCI-H1755	1.03	1.02	0.971	0.743		0.385	0.355	0.917	0.817	0.874	0.615	0.482		0.461		0.474	0.383	0.504	0.419	0.312
NCI-H1792	0.569	0.511	0.478	0.546	0.97	0.527	0.567	1.05	0.973	1	0.87	0.722	0.684	0.646	0.654	0.674	0.483	0.442	0.578	0.425
NCI-H1915	1.06	0.952	0.949	1.15	0.423	0.45	0.504	0.892	0.786	0.829	0.907	0.54	0.574	0.581	0.413	0.722	0.51	0.558	0.433	0.669
